{
  "source": "paper PMC7481357",
  "about": "“N-terminal Myristoylation Enhanced the Antimicrobial Activity of Antimicrobial Peptide PMAP-36PW” (Frontiers in Cellular and Infection Microbiology, 2020)",
  "key": {"P. aeruginosa GIM 1.551 [1]": {"tested_on": "P. aeruginosa GIM 1.551", "assay": "Pneumonia (lung infection) model", "assay_type": "in vivo, BALB/c mice", "conditions": "intranasal 40 μL, 1 μg/μL, once a day for 3 days", "protocol": "A pneumonia model in vivo was established as previously reported, with minor modification (Cortés et al., [2002]; Aoki et al., [2009]; Shi et al., [2018]). A total of 120 mice were randomly divided into two experimental models, one was intranasal inoculation of S. aureus ATCC 25923 (8.3 × 10^9 CFU/mL, 50 μL), and the other was intranasal inoculation of P. aeruginosa GIM 1.551 (4.5 × 10^10 CFU/mL, 50 μL). In the S. aureus ATCC 25923 model, 60 mice were divided into the following six groups of 10 mice each: no infection and treatment was used as a blank control, those with intranasal administration of PBS (40 μL) as the negative control group, those administered with benzylpenicillin potassium (40 μL, 1 μg/μL) as the positive control group, and the remaining three corresponded to Myr-36PW (40 μL, 1 μg/μL), PMAP-36PW (40 μL, 1 μg/μL), and PMAP-36 groups (40 μL, 1 μg/μL). The procedure for P. aeruginosa GIM 1.551 model is the same as for S. aureus ATCC 25923 model, except for the use of ampicillin sodium as the positive control. After 4 h post-inoculation, treatment was initiated, once a day for 3 days. The mice were sacrificed 24 h after the treatment. Changes in the appearance of lung tissues were observed, and lung tissues were removed aseptically from the mice. Half of the removed lung tissues were gently fixed in buffered formaldehyde solution for histopathological assessment by hematoxylin and eosin (H&E) staining. Pathological changes were scored to provide individual therapeutic status as described previously (Lei et al., [2018]). The remaining lung tissues were added with 1 mL of PBS, homogenized, and serially diluted. Bacterial CFU counts were determined.\nFigure 8 Therapeutic effect for pneumonia by Myr-36PW in vivo. Mice were injected with S. aureus ATCC 25923 or P. aeruginosa GIM 1.551 to form pneumonia, and lungs (n = 5) in each group were collected on day 4 after intranasal bacterial inoculation. (A) Morphological changes of lung tissues. (B) Representative histopathological images of processed lung section with hematoxylin and eosin (H&E) staining. Images are presented at a magnification of 20×. a: inflammatory cell infiltration. b: the alveolar wall is thickened. c: alveolar wall congestion or alveolar hemorrhage. (C,D) Pathological scores of the lung sections. Scoring standard: 1 indicated no pathology, 2 indicated local pulmonary congestion and inflammatory cell infiltration, 3 indicated pulmonary congestion and a large number of inflammatory cell infiltration, affecting <20% of the section, 4 indicated pulmonary congestion and a large number of inflammatory cell infiltration, affecting 20–50% of the section, and 5 indicated pulmonary congestion and a large number of inflammatory cell infiltration, affecting >50% of the section. (E,F) Bacterial CFU in lung homogenate. BP is benzylpenicillin potassium, AS is ampicillin sodium. Data represent the mean ± SD of five individual experiments."}, "P. aeruginosa GIM 1.551 [2]": {"tested_on": "P. aeruginosa GIM 1.551", "assay": "Inhibition zone assay (disk diffusion)", "assay_type": "cell-based, Pseudomonas aeruginosa", "design": "key: +, means the peptide has antibacterial activity", "conditions": "disk 10 μg peptide, 18 h at 37°C, * P < 0.05, ** P < 0.01 vs PMAP-36PW", "protocol": "(§1) The inhibition zone assay was performed through the disk diffusion to evaluate the antimicrobial activity of Myr-36PW in vitro (Dunne et al., [2017]). The four above-mentioned bacterial strains were used as experimental strains, with L. monocytogenes CICC 21634 cultured in BHI medium, and P. aeruginosa GIM 1.551 cultured in TSB medium. The bacterial cells were cultured for 12 h at 37°C in the appropriate medium, and the bacterial cell suspension was spread on LB agar. The disks containing 10 μg of peptides (1 μg/μL) were attached to the solid medium and incubated at 37°C for 18 h. Finally the diameter of the inhibition zone was measured."}, "[3]": {"tested_on": "S. aureus ATCC 25923 and P. aeruginosa GIM 1.551", "assay": "Thermal stability testing (boiling, then inhibition zone assay)", "assay_type": "cell-based, Staphylococcus aureus; Pseudomonas aeruginosa", "conditions": "boiled 120 min, 10 μg peptide, n = 5", "protocol": "For thermal stability analysis, the Myr-36PW and peptides were boiled for 10, 20, 30, 40, 50, 60, 90, and 120 min as reported (Ebbensgaard et al., [2015]) with unboiled peptides as controls. Inhibition zone assay was performed against S. aureus ATCC 25923 and P. aeruginosa GIM 1.551. The inhibition zone diameters of peptides (10 μg, 1 μg/μL) were measured after incubation for 18 h at 37°C, and the inhibition curve was drawn.\nFigure 3 Thermal stability determination of Myr-36PW by boiling. Thermal stability test of Myr-36PW and its analogs by boiling in different times (0, 10, 20, 30, 40, 50, 60, 90, and 120 min) via disk diffusion method. (A) (S. aureus ATCC 25923) and (B) (P. aeruginosa GIM 1.551) show the thermal stability curves of PMAP-36, PMAP-36PW, and Myr-36PW. The diameter of the standard disk is 6 mm. Data represent the mean ± SD (n = 5)."}, "[4]": {"tested_on": "L. monocytogenes CICC 21634", "assay": "Inhibition zone assay (disk diffusion)", "assay_type": "cell-based, Listeria monocytogenes", "design": "key: +, means the peptide has antibacterial activity", "conditions": "disk 10 μg peptide, 18 h at 37°C, * P < 0.05, ** P < 0.01 vs PMAP-36PW", "protocol": "as §1"}, "[5]": {"tested_on": "S. aureus ATCC 25923 and P. aeruginosa GIM 1.551", "assay": "pH stability testing (pH 2-13, then inhibition zone assay)", "assay_type": "cell-based, Staphylococcus aureus; Pseudomonas aeruginosa", "conditions": "for pH range of stable antimicrobial activity: peptides treated at pH 2–13, inhibition zone, 10 μg, n = 5", "protocol": "For stability test, the Myr-36PW and peptides were treated with pH 2–13, and PBS buffer with different pH values was used as a control (Wang et al., [2019]). Inhibition zone assay was performed against S. aureus ATCC 25923 and P. aeruginosa GIM 1.551. The inhibition zone diameters of peptides (10 μg, 1 μg/μL) were measured after incubation for 18 h at 37°C, and the inhibition curve was drawn.\nFigure 4 PH stability determination of Myr-36PW. PH stability test was performed using Myr-36PW and its analogs treated with different pH levels (2–13) through disk diffusion method. (A) (S. aureus ATCC 25923) and (B) (P. aeruginosa GIM 1.551) show the pH stability curve of PMAP-36, PMAP-36PW, and Myr-36PW. The diameter of the standard disk is 6 mm. Data represent the mean ± SD (n = 5)."}},
  "note": "Residues, ends and D or L forms follow the SMILES beside them. *: point of attachment. Myristoyl = CCCCCCCCCCCCCC(=O)*",
  "data": [
    {"smiles": "CCCCCCCCCCCCCC(=O)NCC(=O)NCC(=O)N[C@@H](CCCNC(=N)N)C(=O)N[C@@H](Cc1ccccc1)C(=O)N[C@@H](CCCNC(=N)N)C(=O)N[C@@H](CCCNC(=N)N)C(=O)N[C@@H](CC(C)C)C(=O)N[C@@H](CCCNC(=N)N)C(=O)N[C@@H](CCCCN)C(=O)N[C@@H](CCCCN)C(=O)N[C@H](C(=O)N[C@@H](CCCNC(=N)N)C(=O)N[C@@H](CCCCN)C(=O)N[C@@H](CCCNC(=N)N)C(=O)N[C@@H](CC(C)C)C(=O)N[C@@H](CCCCN)C(=O)N[C@@H](CCCCN)C(=O)N[C@H](C(=O)NCC(=O)N[C@@H](CCCCN)C(=O)N[C@H](C(=O)N[C@@H](CC(C)C)C(=O)N[C@@H](CCCCN)C(=O)N[C@@H](Cc1c[nH]c2ccccc12)C(=O)N[C@H](C(=O)N[C@@H](Cc1c[nH]c2ccccc12)C(=O)N[C@@H](Cc1c[nH]c2ccccc12)C(=O)N[C@H](C(=O)N[C@H](C(=O)NCC(=O)N[C@@H](CO)C(=O)N[C@H](C(=O)N1CCC[C@H]1C(=O)N[C@@H](CC(C)C)C(=O)NCC(=O)N[C@@H](CS)C(=O)NCC(=O)O)[C@@H](C)CC)C(C)C)[C@@H](C)CC)[C@@H](C)CC)C(C)C)[C@@H](C)CC)[C@@H](C)O", "note": "[Myr-36PW] (Myristoyl-GGRFRRLRKKTRKRLKKIGKVLKWIWWIVGSIPLGCG-OH; C-terminus assumed)", "values": [
      {"measurement": "Lung histopathology (H&E)", "setting": "P. aeruginosa GIM 1.551 [1]", "value": "a complete alveolar structure, reduced blood stasis, and large reduction in inflammatory cells"},
      {"measurement": "Bacterial CFU in lung homogenate", "setting": "P. aeruginosa GIM 1.551 [1]; n = 5", "value": "decreased the P. aeruginosa GIM 1.551 CFU level compared with the PMAP-36PW group (P < 0.05)"},
      {"measurement": "Pathological scores of the lung sections", "setting": "P. aeruginosa GIM 1.551 [1]; n = 5", "value": "lower scores than PMAP-36PW group (P < 0.05)"},
      {"measurement": "In vitro antibacterial activity (disk diffusion)", "setting": "P. aeruginosa GIM 1.551 [2]", "value": "+**"},
      {"measurement": "Antimicrobial activity after boiling (thermal stability)", "setting": "[3]", "value": "retaining high bacterial inhibition"},
      {"measurement": "In vitro antibacterial activity (disk diffusion)", "setting": "[4]", "value": "+**"},
      {"measurement": "pH range of stable antimicrobial activity", "setting": "[5]; against P. aeruginosa GIM 1.551", "value": "5–11 pH"},
      {"measurement": "pH range of stable antimicrobial activity", "setting": "[5]; against S. aureus ATCC 25923", "value": "5–9 pH"},
      {"measurement": "Antimicrobial activity at pH 2", "setting": "[5]; inhibition zone, 10 μg peptide", "value": "higher than that of PMAP-36PW"},
      {"measurement": "Antimicrobial activity at pH 13", "setting": "[5]; inhibition zone, 10 μg peptide", "value": "disappeared"}
    ]}
  ]
}
